The record followed here is patent publication US5830909A (American Cyanamid Company, priority 1996, dated 1998).

By pIC50 is commonly meant −log10 of the IC50, conventionally taken in molar units.

Assay [1] deals with T1, AII receptor (Rattus norvegicus, UniProt P25095).
T1 construct: adipose tissue from the epididymal and retroperitoneal depots is quickly excised; from tissue; host or cells: membranes of collagenase-isolated adipocytes from epididymal and retroperitoneal fat of male Sprague-Dawley rats
T1 sequence (P25095 1-359): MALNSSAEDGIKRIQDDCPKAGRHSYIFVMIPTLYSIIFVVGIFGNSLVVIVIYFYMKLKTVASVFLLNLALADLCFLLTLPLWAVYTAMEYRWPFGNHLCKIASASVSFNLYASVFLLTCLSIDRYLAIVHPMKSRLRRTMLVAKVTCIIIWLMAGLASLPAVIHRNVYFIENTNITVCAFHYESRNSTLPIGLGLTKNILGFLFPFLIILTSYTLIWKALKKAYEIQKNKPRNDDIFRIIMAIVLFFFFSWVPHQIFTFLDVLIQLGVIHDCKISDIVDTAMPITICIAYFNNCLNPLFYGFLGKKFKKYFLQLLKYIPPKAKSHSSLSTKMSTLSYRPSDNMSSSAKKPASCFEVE
The experiment in a line: Displacement of 125I[Sar,Ile]AII binding in rat epididymal fat cell membranes. Particulars: rat epididymal fat cell membranes (Table 8). An excerpt: The experimental design involves determining the binding characteristics of adipocyte membranes harvested from two different anatomic sites at three different ages. Male Sprague-Dawley rats (Charles River Laboratories, Wilmington, Mass.) are used at 40, 70 and 100 days of age. Rats are killed by carbon dioxide inhalation on the morning of the experiment, and adipose tissue from the epididymal and retroperitoneal depots is quickly excised and placed in cold saline. The spermatic artery and vein are removed from the epididymal fat, and brown fat deposits are dissected away from the retroperitoneal depot. The adipose tissue is weighed, minced into small pieces, and approximately 10 g each transferred to a flask containing 25 ml of Krebs-Ringer-bicarbonate buffer (KRB), 6 mM glucose and 50 mg of collagenase, pH 7.4. […] Intact adipocytes dissociated from the tissue pass freely into waiting tubes, while the undigested tissue is trapped on the screen. The tubes containing the adipocytes are washed an additional 4× with 20 ml each of cold Tris buffer (10 mM Tris HCl, pH 8.0) by first allowing the adipocytes to separate from the digestion medium by flotation, removing the infranatant through polyethylene tubing attached to a syringe, resuspending the cells in the Tris buffer, and repeating this procedure. Adipocyte membranes used for binding studies are prepared as follows. […] Following centrifugation, the fat cake and supernatant are carefully removed, and the pellet resuspended in 1 ml of Tris buffer. Protein content of the high speed pellet is determined, the resuspended protein is either assayed immediately or stored at -75° before binding assays are performed. […] The assay is initiated by the addition of the membrane protein, followed by incubation at 22° C. for 30 minutes in a slowly shaking water bath. Separation of bound from free radioactivity is achieved using any appropriate filtration apparatus. We use either a Millipore or Brandel model harvesting apparatus containing a Durapore or Whatman GF/B filter, followed by 6 additional rinses with 5 ml each of cold saline. The filters are placed in tubes, and radioactivity measured in a gamma scintillation counter programmed to correct for the half-life of the isotope. Using this experimental protocol, both the affinity (KD) and number of binding sites (Bmax) for angiotensin II on the adipocyte membrane can be calculated. The relative affinities of different anatomically distinct adipocyte membranes for a variety of peptide and nonpeptide antagonists can also be determined. […] Concentration ranges can be altered dependent upon the affinity of the particular antagonist for the fat cell membrane receptor.
On the technique in general: Displacement assays read how much labelled ligand stays bound in the presence of the test substance.

The format of assay [2] is in vivo, rat. Conditions: 15 mg/kg once a day by gavage, two weeks. Here is the method:
(§1) Body weight and food intake are monitored daily. At the end of two weeks, the rats are sacrificed and tissues are weighed. Adipocyte membranes are prepared by collagenase digestion, homogenization and centrfugation. […] Of the organs sampled, the combined largest relative and quantitative change in weight was in the adipose tissue.

Assay [3] concerns adipocyte AII receptor. The experiment in a line: Epididymal adipocyte AII receptor binding (Bmax) after two weeks oral treatment. Conditions: 4 rats/group, oral once daily for 2 weeks. Type of assay: in vivo, rat. The procedure:
Body weight and food intake are monitored daily. At the end of two weeks, the rats are sacrificed and tissues are weighed. Adipocyte membranes are prepared by collagenase digestion, homogenization and centrfugation.
Binding is initiated by suspending the adipocyte membranes in 0.25% BSA buffer (bovine serum albumin, 50 mM Tris HCl, 5 mM MgCl2,pH 7.4) to a final concentration of 5 ug protein/10 ul buffer. […] The filters are placed in tubes, and radioactivity measured in a gamma scintillation counter programmed to correct for the half-life of the isotope. Using this experimental protocol, both the affinity (KD) and number of binding sites (Bmax) for angiotensin II on the adipocyte membrane can be calculated.

Assay [4] deals with epididymal adipocytes. The experiment in a line: Epididymal adipocyte cell volume after two weeks oral treatment. Type of assay: in vivo, rat. Particulars: 4 rats/group, oral once daily for 2 weeks. The procedure: as §1
Where [5] appears, read: Epididymal IC50 for displacement of 125I[Sar,Ile]AII binding.
[6] abbreviates: read-out: Epididymal IC50 for displacement of 125I[Sar,Ile]AII binding.

pIC50: −log10 of the molar value. Counter-ions that a name gives are not always drawn. Like-named read-outs stand apart in the source and are kept apart here.

In turn, `CCCCc1nc2ccc(COc3ccccn3)cc2c(=O)n1Cc1ccc(-c2ccccc2-c2nn[nH]n2)cc1` [2-butyl-6-[(2-pyridinyloxy)methyl]-3-[[2'-(1H-tetrazol-5-yl)[1,1'-biphenyl]-4-yl]methyl]-4(3H)-quinazolinone hydrochloride] had a pIC50 in assay [1] (setting [5]) of 7.76.
In the case of `CCCCc1nc(Cl)c(CO)n1Cc1ccc(-c2ccccc2-c2nnn[nH]2)cc1` [2-n-butyl-4-chloro-5-hydroxymethyl-1-[(2'-(1H-tetrazol-5-yl)biphenyl-4-yl)methyl]imidazole, reference compound], in assay [2], the “Avg. Daily Food Intake, % Change From Control” value is on record as -8%; the “Avg. Weight Gain, % Change From Control” value was -38%; the “Epididymal Fat Weight, % Change From Control” value was -21%; the “Final Body Weight, % Change From Control” value is reported as -5%. In assay [2], the “Retroperitoneal Fat Weight, % Change From Control” value was -16%. Further, in assay [2] (n = 6), the “Avg. Daily Food Intake” value turned out to be 30.1 g, the “Avg. Weight Gain” value is on record as 35 g, the “Epididymal Fat Weight” value is recorded as 4.10 g and the “Final Body Weight” value amounted to 431 g. Also, the “Retroperitoneal Fat Weight” value in assay [2] (n = 6) is listed as 4.10 g. Also, the “Bmax, epididymal adipocyte AII receptor binding” value in assay [3] turned out to be 24.7 fmole/mg protein. Moreover, in assay [4], the “Adipocyte Cell Volume” value was found to be 163 p1.
For the molecule `CCCCc1nc2ccc([C@H]3C[C@@H](CO)ON3C)cc2c(=O)n1Cc1ccc(-c2ccccc2-c2nnn[nH]2)cc1` [(3R-cis)-2-butyl-6-[5-(hydroxymethyl)-2-methyl-3-isoxazolidinyl]-3-[[2'-(1H-tetrazol-5-yl)[1,1'-biphenyl-4-yl]methyl]-4(3H)-quinazolinone], in assay [1] (setting [5]), the pIC50 is 8.09.
Same read-out and setting: the result for `CCCc1nc(C)n2[nH]c(=O)nc2c1Cc1ccc(-c2ccccc2-c2nnn[nH]2)cc1` [5-methyl-7-propyl-8-[(2'-(1H-tetrazol-5-yl)biphenyl-4-yl)methyl]-1,2,4-triazolo[1,5-c]pyrimidin-2(3H)-one, reference compound] reads 8.25; that for `CCc1nc2c(C)cc(C)nc2n1Cc1ccc(-c2ccccc2-c2nnn[nH]2)cc1` [2-ethyl-5,7-dimethyl-3-[[2'-(1H-tetrazol-5-yl)[1,1-biphenyl]-4-yl]methyl]-3H-imidazo[4,5-b]pyridine, reference compound], 8.61.
In assay [1] (setting [5]), `CCCCc1nc2ccc(C(O)C3CCCS3(=O)=O)cc2c(=O)n1Cc1ccc(-c2ccccc2-c2nn[nH]n2)cc1` (single isomer, unassigned) [2-butyl-6-[hydroxy(tetrahydro-2-thienyl)methyl]-3-[[2'-(1H-tetrazol-5-yl)[1,1'-biphenyl]-4-yl]methyl]-4(3H)-quinazolinone S,S-dioxide isomer 2] gave a pIC50 of 8.50.
On to `CCCCc1nc2ccc([C@@H]3C[C@@H]4[C@H](O3)ON3[C@H]4CCC3(C)C)cc2c(=O)n1Cc1ccc(-c2ccccc2-c2nn[nH]n2)cc1` [[2S-(2α,3aα,3bβ,8aα)]-2-butyl-6-(6,6'-dimethyloctahydrofuro[3,2-d]pyrrolo[1,2-d]isoxazol-2-yl)-3-[[2'-(1H-tetrazol-5-yl)[1,1'-biphenyl]-4-yl]methyl]-4(3H)-quinazolinone], for which the pIC50 in assay [1] (setting [6]) was 7.85.
The same measure, in the same setting: then “2-butyl-3,5,7,8-tetrahydro-3-[[2'-(1H-tetrazol-5-yl)[1,1'-biphenyl]-4-yl]methyl]-pyrido[4,3-d]pyrimidin-6(4H)-carboxylic acid phenylmethyl ester”, with 7.75.
`CCCCc1nc2ccc(COc3ccccc3)cc2c(=O)n1Cc1ccc(-c2ccccc2-c2nnn[nH]2)cc1` [2-butyl-6-(phenoxymethyl)-3-[[2'-(1H-tetrazol-5-yl)[1,1'-biphenyl]-4-yl]methyl]-4(3H)-quinazolinone] had a pIC50 in assay [1] (setting [5]) of 6.79.
Consider `CCCCc1nc2ccc(C3(C)NN[C@H]4C(=O)N(C)C(=O)[C@H]43)cc2c(=O)n1Cc1ccc(-c2ccccc2-c2nn[nH]n2)cc1` (relative stereo) [(3aα,6aα)-3-[2-butyl-3,4-dihydro-4-oxo-3-[[2'-(1H-tetrazol-5-yl)[1,1'-biphenyl]-4-yl]methyl]-6-quinazolinyl]-2,3,3a,6a-tetrahydro-3,5-dimethylpyrrolo[3,4-c]pyrazole-4,6-(1H,5H)-dione], for which the pIC50 in assay [1] (setting [6]) was 6.26.
In assay [1] (setting [5]), `CCCCc1nc2ccc(C3(C(=O)OC)CC4CCCN4O3)cc2c(=O)n1Cc1ccc(-c2ccccc2-c2nnn[nH]2)cc1` (mixture of isomers) [trans-(+/-)-2-[2-butyl-3,4-dihydro-4-oxo-3-[[2'-(1H-tetrazol-5-yl)[1,1'-biphenyl]-4-yl]methyl]-6-quinazolinyl]hexahydropyrrolo[1,2-b]isoxazole-2-carboxylic acid methyl ester monohydro] had a pIC50 of 7.63.
In turn, `CCCCc1nc2ccc(C3(C)CC(C(=O)OCC)=NO3)cc2c(=O)n1Cc1ccc(-c2ccccc2-c2nn[nH]n2)cc1` (centres unmarked) [5-[2-butyl-3,4-dihydro-4-oxo-3-[[2'-(1H-tetrazol-5-yl)[1,1'-biphenyl]-4-yl]methyl]-6-quinazolinyl]-4,5-dihyrdro-5-methyl-3-isoxazolecarboxylic acid ethyl ester] gave a pIC50 in assay [1] (setting [5]) of 7.45.
The same measure, in the same setting: then `CCCCc1nc2ccc(C(O)C3CCCS3(=O)=O)cc2c(=O)n1Cc1ccc(-c2ccccc2-c2nn[nH]n2)cc1` (single isomer, unassigned) [2-butyl-6-[hydroxy(tetrahydro-2-thienyl)methyl]-3-[[2'-(1H-tetrazol-5-yl)[1,1'-biphenyl]-4-yl]methyl]-4(3H)-quinazolinone S,S-dioxide isomer 1], with 8.77.
In the case of “2-butyl-5,6,7,8-tetrahydro-6-(2-hydroxy-2-methyl-1-oxopropyl)-3-[[2'-(1H-tetrazol-5-yl)[1,1'-biphenyl]-4-yl]methyl]-4(3H)-quinazolinone”, the pIC50 in assay [1] (setting [6]) is 8.87.
As to `CCCCc1nc2ccc(C3CC(c4ccc(C)cc4)=NO3)cc2c(=O)n1Cc1ccc(-c2ccccc2-c2nnn[nH]2)cc1` (centres unmarked) [2-butyl-6-[4,5-dihydro-3-(4-methylphenyl)-5-isoxazolyl]-3-[[2'-(1H-tetrazol-5-yl)[1,1'-biphenyl]-4-yl]methyl]-4(3H)-quinazolinone], the pIC50 in assay [1] (setting [5]) is 6.90.
On the same count and under the same terms, the result for `CCCCc1nc2ccc(C(C)(O)C3CCN(C)C3=O)cc2c(=O)n1Cc1ccc(-c2ccccc2-c2nn[nH]n2)cc1` (single isomer, unassigned) [2-butyl-6-[1-hydroxy-1-(1-methyl-2-oxo-3-pyrrolidinyl)ethyl]-3-[[2'-(1H-tetrazol-5-yl)[1,1'-biphenyl]-4-yl]methyl]-4(3H)-quinazolinone isomer 1] reads 8.10; that for `CCCCc1nc2ccc([C@@H]3C[C@@H](CO)ON3C)cc2c(=O)n1Cc1ccc(-c2ccccc2-c2nnn[nH]2)cc1` [(3S-trans)-2-butyl-6-[5-(hydroxymethyl)-2-methyl-3-isoxazolidinyl]-3-[[2'-(1H-tetrazol-5-yl)[1,1'-biphenyl]-4-yl]methyl]-4(3H)-quinazolinone], 7.73; that for `CCCCc1nc2ccc(C3=NN4CCCCC4C3)cc2c(=O)n1Cc1ccc(-c2ccccc2-c2nn[nH]n2)cc1` (centres unmarked) [2-butyl-6-(3,3a,4,5,6,7-hexahydropyrazolo[1,5-a]pyridin-2-yl)-3-[[2'-(1H-tetrazol-5-yl)[1,1'-biphenyl]-4-yl]methyl]-4(3H)-quinazolinone], 7.06.
